Assay results from patent publication US20140193454A1, “METHOD FROM PREPARING CERIPORIA LACERATA CULTURE EXTRACT AND PHARMACEUTICAL COMPOSITION FOR PREVENTION OR TREATMENT OF DIABETES AND DIABETIC COMPLICATIONS COMPRISING CERIPORIA LACERATA CULTURE EXTRACT AS ACTIVE INGREDIENT” (priority 2013, published 2014).

Columns and labels:
Assay type in all cases: in vivo
[1] = tested on: C57BL/Ksj (BL/Ls) homozygous diabetic (db/db) mice; assay: Weekly tail vein blood glucose level after 12-hr fasting; conditions: after 3 weeks (diabetes control about 400 mg/dL)
Excerpt: (§1) In order to examine the blood glucose lowering effects of the Ceriporia lacerata culture and exopolysaccharide, C57BL/Ksj (BL/Ls) homozygous diabetic (db/db) mice (SPF) as a typical type 2 diabetes animal model were used in this experiment. db/db mice are animals in which diabetes is caused by a point mutation in the leptin receptor gene Lepr of chromosome 4. In the animals, as the leptin receptor decreases, the signaling ability decreases, and thus the blood glucose level increases. The animals are recognized as an insulin-independent diabetes model and suitable for the evaluation and comparison of experimental results on the basis of raw data. For these reason, these db/db mice were selected in this experiment. The db/db mice used in this study were 6-week-old male mice weighing about 30-40 g, and these mice were produced in Japan SLC Inc. and obtained from Central Laboratory Animal (Korea). The mice were acclimated for about 7 days, and the weight and blood glucose level thereof were measured. 30 healthy animals suitable for experimentation and having no abnormal general conditions were selected. […] During the rearing period of 6 week, a change in the weight was measured once weekly. In order to examine a change in the blood glucose level, the tail vein blood glucose level was measured using ACCU-CHEK Sensor (Germany) once weekly after 12-hr fasting. […]

[2] = tested on: C57BL/Ksj (BL/Ls) homozygous diabetic (db/db) mice; assay: Changes in food intake, water intake and weight of db/db mice over 6 weeks; conditions: 300 mg/kg, versus other groups
Excerpt: as §1

[3] = tested on: C57BL/Ksj (BL/Ls) homozygous diabetic (db/db) mice; assay: Organ weight of db/db mice after 6-week oral administration; conditions: 300 mg/kg orally every day, 6 weeks
Method: In the animals, as the leptin receptor decreases, the signaling ability decreases, and thus the blood glucose level increases. The animals are recognized as an insulin-independent diabetes model and suitable for the evaluation and comparison of experimental results on the basis of raw data. For these reason, these db/db mice were selected in this experiment. […] The mice were acclimated for about 7 days, and the weight and blood glucose level thereof were measured. 30 healthy animals suitable for experimentation and having no abnormal general conditions were selected. The experimental animals were divided according to a randomized block design into a negative control group, an exopolysaccharide low-dose group (150 mg/kg), an exopolysaccharide high-dose group (300 mg/kg) and a positive control group (metformin-300 mg/kg) such that the blood glucose level and weight are equal between the groups. These mice were reared for 6 weeks. In addition, normal and control groups, each consisting of 6 animals, were kept for 6 weeks under the same conditions. All test substances and positive control substances were orally administered at the same point of time every day, and the normal and negative control groups were orally administered with water (FIG. 11). During the rearing period of 6 week, a change in the weight was measured once weekly. In order to examine a change in the blood glucose level, the tail vein blood glucose level was measured using ACCU-CHEK Sensor (Germany) once weekly after 12-hr fasting. The experimental animals were fed with a commercially available animal solid feed (Samtaco Co. Ltd., Korea) and allowed access to water ad libitum. The animals were reared under the conditions of temperature of 23±3° C. and relative humidity of 50±10% with a 12-hr light/12-hr dark cycle (lighting: a.m. 8 to p.m. 8). For sacrifice of the experimental animals, all the animals were fasted for 12 hours and anesthetized with ether. Blood was taken from the saphenous vein and placed in a tube for serum separation. Then, the blood was centrifuged at 3,000 rpm for 20 minutes to obtain serum which was to be used as a sample for analysis of biochemical markers. Immediately after sacrifice, the liver, abdominal fat and the like were extracted from all the animals, weighed, fast-frozen at -80° C. and stored until use. Portions of the extracted liver and pancreas were fixed in 4% paraformaldehyde solution and subjected to histological analysis.

CN(C)C(=N)N=C(N)N [MET, metformin]
blood glucose level after 12-hr fasting [1]: no increase in the blood glucose level | feed intake [2]: significantly lower | water intake [2]: significantly lower | Abdominal fat (W/BW) [3]: 2.564 ± 0.33 W/BW | Kidney (W/BW) [3]: 0.39 ± 0.03 W/BW | Kidney fat (W/BW) [3]: 0.89 ± 0.13 W/BW | Liver (W/BW) [3]: 2.60 ± 0.19 W/BW | Spleen (W/BW) [3]: 0.03 ± 0.02 W/BW
